Numbers after ± are expanded uncertainties. Values belong to the molecule of their own block, whether it stands above or below them.
Assays:
[1] = relative permittivity at various frequencies (dimensionless); settings: 303.15 K, 101 kPa, Liquid, Frequency=1 MHz
[2] = relative permittivity at various frequencies (dimensionless); xn = mol fraction of the nth substance listed; settings: 303.15 K, 101 kPa, Liquid, Frequency=1 MHz, Parallel plate capacitor

Compound: C1COCCO1 [1,4-dioxane]
relative permittivity ([1]; Parallel plate capacitor): 2.26 ± 0.014

Compound: C[S+](C)[O-] [dimethyl sulfoxide]
relative permittivity [1]: 46.05 ± 0.28

Compound: CN(C)C=O [dimethylformamide]
relative permittivity ([1]; Parallel plate capacitor): 36.55 ± 0.22

Compound: O [water]
relative permittivity ([1]; Parallel plate capacitor): 76.53 ± 0.46

Now from value to molecule:

relative permittivity ([2]; x2 = 0): 36.55 ± 0.22
Compound: CN(C)C=O [dimethylformamide] + NC=O

relative permittivity ([1]; Parallel plate capacitor): 106.14 ± 0.64
Compound: NC=O [formamide]

relative permittivity ([2]; x1 = 0.122): 40.58 ± 0.24
relative permittivity ([2]; x1 = 0.23): 45 ± 0.27
relative permittivity ([2]; x1 = 0.327): 49.26 ± 0.3
relative permittivity ([2]; x1 = 0.414): 53.6 ± 0.32
relative permittivity ([2]; x1 = 0.493): 58.17 ± 0.35
relative permittivity ([2]; x1 = 0.5): 58.5 ± 0.35
relative permittivity ([2]; x1 = 0.565): 63.22 ± 0.38
relative permittivity ([2]; x1 = 0.63): 67.66 ± 0.41
relative permittivity ([2]; x1 = 0.69): 72.58 ± 0.44
relative permittivity ([2]; x1 = 0.745): 77.4 ± 0.46
relative permittivity ([2]; x1 = 0.796): 82.52 ± 0.5
relative permittivity ([2]; x1 = 0.843): 86.95 ± 0.52
relative permittivity ([2]; x1 = 0.886): 91.84 ± 0.55
relative permittivity ([2]; x1 = 0.927): 96.1 ± 0.58
relative permittivity ([2]; x1 = 0.965): 101.77 ± 0.61
relative permittivity ([2]; x1 = 1): 106.14 ± 0.64
Compound: NC=O [formamide] + CN(C)C=O

relative permittivity ([2]; x1 = 0.144): 36.91 ± 0.22
relative permittivity ([2]; x1 = 0.275): 44.61 ± 0.27
relative permittivity ([2]; x1 = 0.394): 52.04 ± 0.31
relative permittivity ([2]; x1 = 0.5): 59.52 ± 0.36
relative permittivity ([2]; x1 = 0.503): 59.14 ± 0.35
relative permittivity ([2]; x1 = 0.603): 66.34 ± 0.4
relative permittivity ([2]; x1 = 0.695): 74.02 ± 0.44
relative permittivity ([2]; x1 = 0.78): 81.77 ± 0.49
relative permittivity ([2]; x1 = 0.859): 90.12 ± 0.54
relative permittivity ([2]; x1 = 0.932): 97.77 ± 0.59
relative permittivity ([2]; x1 = 1): 106.14 ± 0.64
Compound: NC=O [formamide] + NCCO

— the NIST ThermoML archive (doi:10.1007/s10765-011-1086-8)
